Reference: US6803499B1, “Methods and compositions for the production of stably transformed, fertile monocot plants and cells thereof” (DeKalb Genetics Corporation, priority 1989, dated 2004)

Tested on: SC82 cells
Experiment: Bialaphos selection of SC82 suspension culture cells on filters
Format: cell-based, Zea mays
Method: The suspension culture (designated SC82) used in the initial experiments (see Example 8) was derived from embryogenic Type-II callus of A188×B73. Following bombardment (see Example 8), cells on filters were resuspended in nonselective liquid medium, cultured for 1 to 2 weeks and transferred to filters overlaying solid medium containing 1 or 3 mg/l bialaphos. The degree of inhibition of tissue growth during selection was dependent upon the density of the cells on the filter and on the concentration of bialaphos used.
Using either selection protocol (1 or 3 mg/l bialaphos), resistant cell colonies emerged on the selection plates of SC82 bombarded with pDPG165 approximately 6 to 7 weeks after bombardment (FIG. 2A). Bialaphos-resistant calli were maintained and expanded on selection medium. Much of this tissue was embryogenic (FIG. 2B). […] These were controls which confirm the prediction that cells without the bar gene are not resistant to bialaphos.

SMILES: C[C@H](NC(=O)[C@H](C)NC(=O)[C@@H](N)CCP(C)(=O)O)C(=O)O [bialaphos]
- growth of cells cultured on bialaphos (SC82 cells, 0.5 PCV/filter, 1 mg/l bialaphos): 30-50 % of nonselected growth
- growth of cells on the original selection filter (SC82 cells, 0.5 PCV/filter, 3 mg/l bialaphos): ~10 % of nonselected growth
- colony growth on selection plates (cells from untransformed suspension cultures, 1 or 3 mg/l bialaphos): No colony growth
